In patent US20250018047A1, “METHODS AND COMPOSITIONS FOR TARGETED PROTEIN DEGRADATION” (Ranok Therapeutics (Hangzhou) Co. Ltd., priority 2021, published 2025):

How the values were obtained:
KRAS(G12D)/SOS1 = target: T1, KRAS(G12D)/SOS1 (Homo sapiens, UniProt P01116, G12D); test: KRAS(G12D)/SOS1 homogeneous time-resolved fluorescence (HTRF) assay; assay type: binding; details: absence of GTP, 4° C. for 3 hr
T1 construct: purchased Cisbio 63ADK000CB16PEG
Procedure: The test compound was mixed and incubated with reaction components, incubated in a sealed plate at 4° C. for 3 hr and fluorescence was measured using a PerkinElmer Envision plate reader.

[1] = tested on: AsPC-1 human pancreatic adenocarcinoma; test: CellTiter-Glo cancer cell line proliferation assay, AsPC-1; assay type: cell-based; details: Homo sapiens, ASPC1, 24 hr
Procedure: (§1) Cell lines were cultured according to ATCC and recommendations.
(§2) CellTiter-Glo® Reagent Cancer Cell Line Proliferation Assays
(§3) Cells were plated in 96-well tissue culture plates at 4,000 cells/well and incubated at 37° C./5% CO2 for 24 hr in 100 μl of media. […] Cells were then treated with test compounds at various concentrations with a final concentration of 0.5% DMSO/well, and then incubated at 37° C./5% CO2 for 24 hr. 100 μl of CellTiter-Glo® Reagent (Promega Corporation, Madison, WI) was added to each well and processed according manufacturer's protocol. Results were analyzed and IC50-values were calculated in GraphPad 7 software.

[2] = tested on: A-427 human lung carcinoma; test: CellTiter-Glo cancer cell line proliferation assay, A-427; assay type: cell-based; details: Homo sapiens, A-427, 24 hr, read-out: A427 at 24 hrs, IC50
Procedure: as §1, §2, §3

T1 sequence (P01116 1-188 isoform P01116-2 G12D): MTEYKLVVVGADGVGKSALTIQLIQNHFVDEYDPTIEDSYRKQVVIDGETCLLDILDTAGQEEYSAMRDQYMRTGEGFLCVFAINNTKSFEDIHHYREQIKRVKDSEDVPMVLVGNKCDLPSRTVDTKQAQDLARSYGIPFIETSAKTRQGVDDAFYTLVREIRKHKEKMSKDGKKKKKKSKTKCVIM

Compound	IC50 (KRAS(G12D)/SOS1)	IC50 [1]	IC50 [2]
CN1C[C@H](N2CCN(CC3CCN(c4ccc5c(c4)C(=O)N(C4CCC(=O)NC4=O)C5=O)CC3)CC2)C[C@@H]1COc1nc(N2CC3CCC(C2)N3)c2cnc(-c3cc(O)cc4ccccc34)c(F)c2n1 (some centres unmarked) [Compound 34]	< 100 nM	> 1000 nM	> 1000 nM
CN1C[C@H](N2CCN(CC3CCN(c4cccc5c4C(=O)N(C4CCC(=O)NC4=O)C5=O)CC3)CC2)C[C@@H]1COc1nc(N2CC3CCC(C2)N3)c2cnc(-c3cc(O)cc4ccccc34)c(F)c2n1 (some centres unmarked) [Compound 35]	< 100 nM	> 1000 nM	> 1000 nM
CN1C[C@H](N2CCN(Cc3ccc4c(c3)C(=O)N(C3CCC(=O)NC3=O)C4=O)CC2)C[C@@H]1COc1nc(N2CC3CCC(C2)N3)c2cnc(-c3cc(O)cc4ccccc34)c(F)c2n1 (some centres unmarked) [Compound 36]	< 100 nM	> 1000 nM	> 1000 nM
CN1C[C@H](N2CCC(C(=O)Nc3ccc4c(c3)CN(C3CCC(=O)NC3=O)C4=O)CC2)C[C@@H]1COc1nc(N2CC3CCC(C2)N3)c2cnc(-c3cccc4cccc(Cl)c34)c(F)c2n1 (some centres unmarked) [Compound 49]	100 to 1000 nM	–	–
O=C1CCC(N2Cc3cc(N4CCC(CN5CCN(CC6(COc7nc(N8CC9CCC(C8)N9)c8cnc(-c9cc(O)cc%10ccccc9%10)c(F)c8n7)CC6)CC5)CC4)ccc3C2=O)C(=O)N1 (centres unmarked) [Compound 52]	< 100 nM	–	100 to 1000 nM
CN1C[C@H](C2CCC(C(=O)NCCOc3ccc4c(c3)C(=O)N(C3CCC(=O)NC3=O)C4=O)CC2)C[C@@H]1COc1nc(N2CC3CCC(C2)N3)c2cnc(-c3cc(O)cc4ccccc34)c(F)c2n1 (some centres unmarked) [Compound 53]	< 100 nM	–	> 1000 nM
CN1CC(N2CCC(C(=O)NCCOCCOc3ccc4c(c3)C(=O)N(C3CCC(=O)NC3=O)C4=O)CC2)C[C@@H]1COc1nc(N2CC3CCC(C2)N3)c2cnc(-c3cc(O)cc4ccccc34)c(F)c2n1 (some centres unmarked) [Compound 54]	< 100 nM	–	> 1000 nM
C#Cc1cccc2cccc(-c3ncc4c(N5CC6CCC(C5)N6)nc(OC[C@H]5CC[C@@H](CN6CCN(CC7CCN(c8cc9c(cc8F)C(=O)N(C8CCC(=O)NC8=O)C9=O)CC7)CC6)N5C)nc4c3F)c12 (some centres unmarked) [Compound 55]	< 100 nM	–	> 1000 nM
Cc1cccc2cccc(-c3ncc4c(N5CC6CCC(C5)N6)nc(OCC5(CN6CCN(CC7CCN(c8ccc9c(c8)C(=O)N(C8CCC(=O)NC8=O)C9=O)CC7)CC6)CC5)nc4c3F)c12 (centres unmarked) [Compound 58]	< 100 nM	–	–
CN1[C@@H](COc2nc(N3CC4CCC(C3)N4)c3cnc(-c4cc(O)cc5ccccc45)c(F)c3n2)CC[C@H]1CN1CCN(CC2CCN(c3ccc4c(c3)C(=O)N(C3CCC(=O)NC3=O)C4=O)CC2)CC1 (some centres unmarked) [Compound 60]	< 100 nM	–	> 1000 nM
C#Cc1cccc2cc(O)cc(-c3ncc4c(N5CC6CCC(C5)N6)nc(OCC5(CN6CCN(Cc7ccc8c(c7)CN(C7CCC(=O)NC7=O)C8=O)CC6)CC5)nc4c3F)c12 (centres unmarked) [Compound 61]	< 100 nM	–	100 to 1000 nM
C#Cc1cccc2cccc(-c3ncc4c(N5CC6CCC(C5)N6)nc(OC[C@H]5CC[C@@H](CN6CCN(CCC7CCN(c8ccc9c(c8)C(=O)N(C8CCC(=O)NC8=O)C9=O)CC7)CC6)N5C)nc4c3F)c12 (some centres unmarked) [Compound 62]	< 100 nM	–	100 to 1000 nM
Cc1cccc(-c2ncc3c(N4CC5CCC(C4)N5)nc(OCC4(CN5CCN(CC6CCN(c7ccc8c(c7)C(=O)N(C7CCC(=O)NC7=O)C8=O)CC6)CC5)CC4)nc3c2F)c1C (centres unmarked) [Compound 63]	< 100 nM	–	> 1000 nM
C#Cc1c(F)ccc2cc(O)cc(-c3ncc4c(N5CC6CCC(C5)N6)nc(OCC5(CN6CCN(Cc7ccc8c(c7)C(=O)N(C7CCC(=O)NC7=O)C8=O)CC6)CC5)nc4c3F)c12 (centres unmarked) [Compound 64]	< 100 nM	–	> 1000 nM
C#Cc1cccc2cc(O)cc(-c3ncc4c(N5CC6CCC(C5)N6)nc(OCC5(CN6CCN(Cc7ccc8c(c7)C(=O)N(C7CCC(=O)NC7=O)C8=O)CC6)CC5)nc4c3F)c12 (centres unmarked) [Compound 65]	< 100 nM	–	> 1000 nM
C#Cc1cccc2cccc(-c3ncc4c(N5CC6CCC(C5)N6)nc(OCC5(CN(C)CC6CCN(c7ccc8c(c7)C(=O)N(C7CCC(=O)NC7=O)C8=O)CC6)CC5)nc4c3F)c12 (centres unmarked) [Compound 67]	< 100 nM	–	100 to 1000 nM
C#Cc1cccc2cc(O)cc(-c3ncc4c(N5CC6CCC(C5)N6)nc(OC[C@H]5CC[C@@H](CN6CCN(CC7CCN(c8ccc9c(c8)C(=O)N(C8CCC(=O)NC8=O)C9=O)CC7)CC6)N5C)nc4c3F)c12 (some centres unmarked) [Compound 68]	< 100 nM	–	> 1000 nM
C#Cc1cccc2cc(O)cc(-c3ncc4c(N5CC6CCC(C5)N6)nc(OC[C@H]5CC[C@@H](CN6CCN(CC7CCN(c8ccc9c(c8)CN(C8CCC(=O)NC8=O)C9=O)CC7)CC6)N5C)nc4c3F)c12 (some centres unmarked) [Compound 69]	< 100 nM	–	> 1000 nM

Compound	IC50 (KRAS(G12D)/SOS1)	IC50 [1]	IC50 [2]
COc1cc(-c2ncc3c(N4CC5CCC(C4)N5)nc(OCC4(CN5CCN(CC6CCN(c7ccc8c(c7)CN(C7CCC(=O)NC7=O)C8=O)CC6)CC5)CC4)nc3c2F)c2ccccc2c1 (centres unmarked) [Compound 70]	> 1000 nM	–	> 1000 nM
C#Cc1cccc2cccc(-c3ncc4c(N5CC6CCC(C5)N6)nc(OC[C@H]5C[C@@H](N6CCN(CCC7CCN(c8ccc9c(c8)C(=O)N(C8CCC(=O)NC8=O)C9=O)CC7)CC6)CN5C)nc4c3F)c12 (some centres unmarked) [Compound 74]	< 100 nM	–	> 1000 nM
CN(CC1CCN(c2ccc3c(c2)C(=O)N(C2CCC(=O)NC2=O)C3=O)CC1)CC1(COc2nc(N3CC4CCC(C3)N4)c3cnc(-c4cc(O)cc5ccccc45)c(F)c3n2)CC1 (centres unmarked) [Compound 75]	< 100 nM	–	> 1000 nM
O=C1CCC(N2C(=O)c3ccc(N4CCN(C(=O)C5CCN(CC6(COc7nc(N8CC9CCC(C8)N9)c8cnc(-c9cc(O)cc%10ccccc9%10)c(F)c8n7)CC6)CC5)CC4)cc3C2=O)C(=O)N1 (centres unmarked) [Compound 76]	< 100 nM	–	> 1000 nM
C#Cc1cccc2cc(O)cc(-c3ncc4c(N5CC6CCC(C5)N6)nc(OCC5(CN6CCN(CC7CCN(CC(=O)N[C@@H](C(=O)N8C[C@@H](O)C[C@@H]8C(=O)NCc8ccc(-c9scnc9C)cc8)C(C)(C)C)CC7)CC6)CC5)nc4c3F)c12 [Compound 82]	–	> 1000 nM	> 1000 nM
C#Cc1cccc2cc(O)cc(-c3ncc4c(N5CC6CCC(C5)N6)nc(OCC5(CN6CCN(C(=O)N7CCN(c8ccc9c(c8)CN(C8CCC(=O)NC8=O)C9=O)CC7)CC6)CC5)nc4c3F)c12 (centres unmarked) [Compound 88]	–	100 to 1000 nM	> 1000 nM
C#Cc1c(F)ccc2cc(O)cc(-c3ncc4c(N5CC6CCC(C5)N6)nc(OCC5(CN(C)CC6CCN(c7ccc8c(c7)C(=O)N(C7CCC(=O)NC7=O)C8)CC6)CC5)nc4c3F)c12 (centres unmarked) [Compound 89]	–	> 1000 nM	> 1000 nM
C#Cc1cccc2cc(O)cc(-c3ncc4c(N5CC6CCC(C5)N6)nc(OCC5(CN6CCN(CC7CCN(c8cc9c(cc8F)C(=O)N(C8CCC(=O)NC8=O)C9)CC7)CC6)CC5)nc4c3F)c12 (centres unmarked) [Compound 90]	–	< 100 nM	< 100 nM
C#Cc1cccc2cc(O)cc(-c3nc(OC)c4c(N5CC6CCC(C5)N6C)nc(OCC5(CN6CCN(CC7CCN(c8ccc9c(c8)CN(C8CCC(=O)NC8=O)C9=O)CC7)CC6)CC5)nc4c3F)c12 (centres unmarked) [Compound 105]	< 100 nM	> 1000 nM	–
C#Cc1c(F)ccc2cc(O)cc(-c3nc(OC)c4c(N5CCN(C)[C@@H](CC#N)C5)nc(OCC5(CN6CCN(CC7CCN(c8ccc9c(c8)CN(C8CCC(=O)NC8=O)C9=O)CC7)CC6)CC5)nc4c3F)c12 (some centres unmarked) [Compound 106]	< 100 nM	> 1000 nM	–
C#Cc1c(F)ccc2cc(O)cc(-c3ncc4c(N5CC6CCC(C5)N6C(=O)C(F)(F)F)nc(OCC5(CN6CCN(CC7CCN(c8ccc9c(c8)CN(C8CCC(=O)NC8=O)C9=O)CC7)CC6)CC5)nc4c3F)c12 (centres unmarked) [Compound 108]	< 100 nM	–	–
C#Cc1c(F)ccc2cc(O)cc(-c3ncc4c(N5CCN(C(=O)C=C)[C@@H](CC#N)C5)nc(OCC5(CN6CCN(CC7CCN(c8ccc9c(c8)CN(C8CCC(=O)NC8=O)C9=O)CC7)CC6)CC5)nc4c3F)c12 (some centres unmarked) [Compound 109]	< 100 nM	–	–
C#Cc1c(F)ccc2cc(O)cc(-c3ncc4c(N5CC6CCC(C5)N6C(=O)CC#N)nc(OCC5(CN6CCN(CC7CCN(c8ccc9c(c8)CN(C8CCC(=O)NC8=O)C9=O)CC7)CC6)CC5)nc4c3F)c12 (centres unmarked) [Compound 110]	< 100 nM	–	–
C#Cc1c(F)ccc2cc(O)cc(-c3ncc4c(N5CC6CCC(C5)N6)nc(OCC5(CN6CCC(CN7CCC(c8ccc(NC9CCC(=O)NC9=O)cc8)CC7)CC6)CC5)nc4c3F)c12 (centres unmarked) [Compound 113]	< 100 nM	–	–
C#Cc1c(F)ccc2cc(O)cc(-c3ncc4c(N5CC6CCC(C5)N6)nc(OCC5(CN6CCC7(CC6)CCN(c6ccc8c(c6)CN(C6CCC(=O)NC6=O)C8=O)CC7)CC5)nc4c3F)c12 (centres unmarked) [Compound 114]	< 100 nM	–	–
C#Cc1c(F)ccc2cc(O)cc(-c3nc(OC)c4c(N5CC6CCC(C5)N6)nc(OCC5(CN6CCN(C7CCN(c8ccc9c(c8)C(=O)N(C8CCC(=O)NC8=O)C9=O)CC7)CC6)CC5)nc4c3F)c12 (centres unmarked) [Compound 115]	< 100 nM	–	–
C#Cc1c(F)ccc2cc(O)cc(-c3ncc4c(N5CC6CCC(C5)N6)nc(OCC5(CN6CCC7(CC6)CN(c6ccc8c(c6)CN(C6CCC(=O)NC6=O)C8=O)C7)CC5)nc4c3F)c12 (centres unmarked) [Compound 116]	< 100 nM	–	–
C#Cc1c(F)ccc2cc(O)cc(-c3ncc4c(N5CC6CCC(C5)N6)nc(OCC5(CN6CC7(C6)CN(c6ccc8c(c6)CN(C6CCC(=O)NC6=O)C8=O)C7)CC5)nc4c3F)c12 (centres unmarked) [Compound 117]	< 100 nM	–	–
